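Exposure lasted 48 hours, with cells grown in 96-well plates and compounds tested at five concentrations. GI50 = concentration required for 50% inhibition of growth.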 Activity calls are given as the source filed them. Cut-off read from the data, not from the text of the source: active = GI50 up to about 1.1 µM and inactive = higher.
Key:
Assay in all cases: NCI tumour cell line growth inhibition, 48 h
786-0 = system: 786-0
A549 = system: A549
ACHN = system: ACHN
CCRF-CEM = system: CCRF-CEM
COLO 205 = system: COLO 205
DLD-1 = system: DLD-1
DMS-273 = system: DMS-273
EKVX = system: EKVX
HCC 2998 = system: HCC 2998
HCT-116 = system: HCT-116
HCT-15 = system: HCT-15
HL-60 = system: HL-60
HOP-18 = system: HOP-18
HOP-62 = system: HOP-62
HOP-92 = system: HOP-92
HT-29 = system: HT-29
KM-20L2 = system: KM-20L2
M19-MEL = system: M19-MEL
MOLT-4 = system: MOLT-4
Malme-3M = system: Malme-3M
NCI-H226 = system: NCI-H226
NCI-H23 = system: NCI-H23
NCI-H460 = system: NCI-H460
OVCAR-3 = system: OVCAR-3
OVCAR-5 = system: OVCAR-5
OVCAR-8 = system: OVCAR-8
RXF 393 = system: RXF 393
RXF 631 = system: RXF 631
SF-268 = system: SF-268
SF-295 = system: SF-295
SF-539 = system: SF-539
SK-MEL-28 = system: SK-MEL-28
SK-MEL-2 = system: SK-MEL-2
SK-OV-3 = system: SK-OV-3
SN12C = system: SN12C
SNB-19 = system: SNB-19
SNB-75 = system: SNB-75
SNB-78 = system: SNB-78
SR = system: SR
TK-10 = system: TK-10
U-251 = system: U-251
UACC-257 = system: UACC-257
UACC-62 = system: UACC-62
UO-31 = system: UO-31
XF498 = system: XF498
A498 = system: A498
CAKI-1 = system: CAKI-1
DMS-114 = system: DMS-114
IGROV-1 = system: IGROV-1
K562 = system: K562
LOX IMVI = system: LOX IMVI
LXFL 529 = system: LXFL 529
M14 = system: M14
NCI-H522 = system: NCI-H522
OVCAR-4 = system: OVCAR-4
RPMI-8226 = system: RPMI-8226
SK-MEL-5 = system: SK-MEL-5
SW-620 = system: SW-620

## O=[N+]([O-])c1cnn(C2=CNc3ccccc3N=C2)c1
786-0
  GI50: > 100 µM (inactive)
A549
  GI50: > 100 µM (inactive)
ACHN
  GI50: > 100 µM (inactive)
CCRF-CEM
  GI50: > 100 µM (inactive)
COLO 205
  GI50: > 100 µM (inactive)
DLD-1
  GI50: > 100 µM (inactive)
DMS-273
  GI50: > 100 µM (inactive)
EKVX
  GI50: > 100 µM (inactive)
HCC 2998
  GI50: > 100 µM (inactive)
HCT-116
  GI50: > 100 µM (inactive)
HCT-15
  GI50: > 100 µM
HL-60
  GI50: > 100 µM (inactive)
HOP-18
  GI50: > 100 µM (inactive)
HOP-62
  GI50: > 100 µM (inactive)
HOP-92
  GI50: > 100 µM (inactive)
HT-29
  GI50: > 100 µM (inactive)
KM-20L2
  GI50: > 100 µM (inactive)
M19-MEL
  GI50: > 100 µM (inactive)
MOLT-4
  GI50: > 100 µM (inactive)
Malme-3M
  GI50: > 100 µM (inactive)
NCI-H226
  GI50: > 100 µM (inactive)
NCI-H23
  GI50: > 100 µM (inactive)
NCI-H460
  GI50: > 100 µM (inactive)
OVCAR-3
  GI50: > 100 µM (inactive)
OVCAR-5
  GI50: > 100 µM (inactive)
OVCAR-8
  GI50: > 100 µM (inactive)
RXF 393
  GI50: 46.7 µM (inactive)
RXF 631
  GI50: > 100 µM (inactive)
SF-268
  GI50: > 100 µM (inactive)
SF-295
  GI50: > 100 µM (inactive)
SF-539
  GI50: > 100 µM (inactive)
SK-MEL-28
  GI50: > 100 µM (inactive)
SK-MEL-2
  GI50: > 100 µM (inactive)
SK-OV-3
  GI50: > 100 µM (inactive)
SN12C
  GI50: > 100 µM (inactive)
SNB-19
  GI50: > 100 µM (inactive)
SNB-75
  GI50: 43.8 µM (inactive)
SNB-78
  GI50: > 100 µM (inactive)
SR
  GI50: > 100 µM (inactive)
TK-10
  GI50: > 100 µM (inactive)
U-251
  GI50: > 100 µM (inactive)
UACC-257
  GI50: > 100 µM (inactive)
UACC-62
  GI50: > 100 µM (inactive)
UO-31
  GI50: > 100 µM (inactive)
XF498
  GI50: > 100 µM (inactive)

## O=C(CC1(O)C(=O)Nc2ccccc21)c1ccc(Cl)cc1Cl (stereo unspecified)
786-0
  GI50: > 100 µM (inactive)
A498
  GI50: > 100 µM (inactive)
A549
  GI50: > 100 µM (inactive)
ACHN
  GI50: > 100 µM (inactive)
CAKI-1
  GI50: > 100 µM (inactive)
COLO 205
  GI50: > 100 µM (inactive)
DLD-1
  GI50: > 100 µM (inactive)
DMS-114
  GI50: > 100 µM (inactive)
DMS-273
  GI50: > 100 µM (inactive)
EKVX
  GI50: > 100 µM (inactive)
HCT-116
  GI50: > 100 µM (inactive)
HCT-15
  GI50: > 100 µM
HL-60
  GI50: > 100 µM (inactive)
HOP-92
  GI50: > 100 µM (inactive)
HT-29
  GI50: > 100 µM (inactive)
IGROV-1
  GI50: > 100 µM (inactive)
K562
  GI50: > 100 µM (inactive)
KM-20L2
  GI50: > 100 µM (inactive)
LOX IMVI
  GI50: > 100 µM (inactive)
LXFL 529
  GI50: > 100 µM (inactive)
M14
  GI50: > 100 µM (inactive)
M19-MEL
  GI50: > 100 µM (inactive)
MOLT-4
  GI50: > 100 µM (inactive)
Malme-3M
  GI50: > 100 µM (inactive)
NCI-H226
  GI50: 71.6 µM (inactive)
NCI-H23
  GI50: > 100 µM (inactive)
NCI-H522
  GI50: > 100 µM (inactive)
OVCAR-3
  GI50: > 100 µM (inactive)
OVCAR-4
  GI50: > 100 µM (inactive)
OVCAR-5
  GI50: > 100 µM (inactive)
OVCAR-8
  GI50: > 100 µM (inactive)
RPMI-8226
  GI50: > 100 µM (inactive)
RXF 393
  GI50: > 100 µM (inactive)
RXF 631
  GI50: > 100 µM (inactive)
SF-268
  GI50: > 100 µM (inactive)
SF-295
  GI50: > 100 µM (inactive)
SF-539
  GI50: > 100 µM (inactive)
SK-MEL-28
  GI50: > 100 µM (inactive)
SK-MEL-2
  GI50: > 100 µM (inactive)
SK-MEL-5
  GI50: > 100 µM (inactive)
SK-OV-3
  GI50: > 100 µM (inactive)
SN12C
  GI50: > 100 µM (inactive)
SNB-19
  GI50: > 100 µM (inactive)
SNB-75
  GI50: > 100 µM (inactive)
SNB-78
  GI50: > 100 µM (inactive)
SW-620
  GI50: > 100 µM (inactive)
TK-10
  GI50: > 100 µM (inactive)
UACC-257
  GI50: > 100 µM (inactive)
UACC-62
  GI50: > 100 µM (inactive)
UO-31
  GI50: > 100 µM (inactive)
XF498
  GI50: > 100 µM (inactive)
